Test [1] concerns CT26 live tumor fragments. The test is described as follows: FLIM lifetime metabolic ratio (LMR) with ground truth dyes (PI, caspase 3/7) in CT26 live tumor fragments. The settings on record: for shift in the LMR relative to time zero healthy tissue: normalized LMR; for mode of cell death induced: confirmed with Caspase 3/7 and PI probes. The test is classed as cell-based, murine. On the procedure:
Live tumor fragments (LTFs) from flank expressed murine syngeneic CT26 tumors were used to assess cell state using a combination of OCM/dOCM and FLIM as described herein.
CT26 tumors were excised, bisected, and cut into 300×300×300 μm LTFs. These fragments were sorted into 18-well plates for analysis by microscopy. Fragments were incubated at 37° C. in 5% CO2 in non-phenol red containing RPMI for up to four hours before being placed in the microscope. During imaging the sample was maintained in a stage-top incubator at 37° C., 5% CO2, and 95% humidity. Images were taken using a custom four channel multi-photon microscope built on a modified Zeiss Axiovert platform using adapted Bruker components, the PrairieView software package, and electronic components to drive and control the scanning microscope. FLIM data was acquired using an 8 channel Swabian instruments time tagger.
FLIM images were acquired at 50 micron and 75 micron depths into the tissue. Live tumor fragment structure and metabolic status were assessed based on the intrinsically fluorescent metabolic co-factors […] (NAD(P)H), excited at 740 nm, and flavin adenine dinucleotide (FAD), excited at 880 nm. […] LMR histogram data from the fragments was normalized by taking the mode of the resultant histogram data at baseline from healthy tissue and setting this value to 0 across the time course. Data derived from the NAD(P)H, and FAD signals were used to segment the image into individual Voronoi cells seeded from nuclear segmentation. The normalized LMR value was determined for each Voronoi cell.
To qualify observed shifts in the LMR, the ground truth nuclear localizing dyes for cleaved caspase 3/7 activity (Invitrogen) or necrosis (propidium iodide) were added. Voronoi cells that stained positive for propidium iodide were marked as dead and those that were not stained with PI were marked as live.
Cell death via apoptosis was induced using staurosporine. […] (FIG. 8). […] Probe data from Caspase 3/7 and P1 confirmed the shift for LMR values indicating live tissue vs. dead tissue. Cell death via necroptosis was induced using Shikonin. […] PI confirmed the necroptosis signature.
To validate the imaging routine in a model with clinical relevancy, CT26 mLTFs were treated with a combination of […] (3MA) and doxorubicin over a duration of 48 hours (FIG. 10). For this, mLTFs were imaged every 24 hours following treatment for longitudinal assessment of chemotherapeutic efficacy. Linear metabolic shift values obtained in separate CT26 control experiments were applied to Voronoi segmented images to classify individual cells as alive or dead. Data were plotted in a time course indicating the activity of the drug combination.

The subject of the next test is mouse liver slice. The test can be described thus: dOCM imaging of live and dead cells in a mouse liver slice after local staurosporine injection. Particulars: local injection of 200 nL, 2 μM in DMSO; 300 μm thick liver slice. The class given is cell-based. From the text: A 300 μm thick slice of liver is shown. […] Live cells in the live region (lower part in the xy plane) are highlighted in the dOCM image volume. The live cells show high contrast compared to dead regions in the three orthogonal views (xy, yz, and xz planes). The positions of the yz and xz slices are indicated by the yellow lines in the xy plane. Scale bar: 100 μm.
Live cells were visible in the dOCM image volume. […] Good correlation is observed between the dOCM signal and the expected LMR signatures in this monolithic tissue (FIG. 3). […] In those areas, the dOCM is used to establish a ground truth for living tissue that can in turn be used to qualify the LMR and set specific discreet baseline LMR values for living tissue in these regions. This is as opposed to using a generic, specific value determined with an assumption that the tissue is monolithic.

The subject of test [2] is primary human lung cancer tissue. The test can be described thus: Combined dOCM and FLIM imaging of tissue viability in a primary human lung cancer tissue slice. The test is classed as cell-based. The settings on record: 10 μM. On the procedure: FIG. 16 presents multimodal imaging of tissue viability with primary human lung cancer tissue using combined dOCM and FLIM. (a) dOCM and LMR images of a human lung cancer tissue slice. (b) dOCM and LMR images of another lung tissue slice from the same sample. The metabolic state of this sample is different from the tissue slice in (a). (c) The tissue slice in (a) was treated with 10 μM staurosporine. The slice was imaged 24 hours after treatment. […] Scale bar: 100 μm.
FIG. 16 presents multimodal imaging of tissue viability with primary human lung cancer tissue using combined dOCM and FLIM. (a) dOCM and LMR images of a human lung cancer tissue slice. (b) dOCM and LMR images of another lung tissue slice from the same sample. The metabolic state of this sample is different from the tissue slice in (a). (c) The tissue slice in (a) was treated with 10 μM staurosporine. The slice was imaged 24 hours after treatment. […] Scale bar 100 μm.

Another test has as its system mouse liver. The test is described as follows: Multimodal dOCM and FLIM imaging of tissue viability in mouse liver after shikonin injection. The class given is cell-based. The settings on record: 100 nL, 6 μM, injected into the center of the tissue; PI staining. On the procedure:
100 nL shikonin (6 μM) was injected into the center of the tissue to create necroptosis indicted by the white arrow. Scale bar: 100 μm. […] LMR values are indicated by the color bar.

The results in this text go back to patent US20260287575A1, “LABEL-FREE METHODS FOR ASSESSING CELL STATE IN A BIOLOGICAL SAMPLE” (priority 2023, published 2026).

As to `Cn1cnc(N)c2ncnc1-2` [3-MA], the PI staining result in test [1] (CT26 live tumor fragment (FIG. 6)) is on record as “dead cells”. The “LMR values of PI-stained cells” value in test [1] (CT26 live tumor fragment treated and stained with PI (FIG. 6)) is recorded as “relatively uniform low LMR values”.
With `CN[C@@H]1C[C@H]2O[C@@](C)([C@@H]1OC)n1c3ccccc3c3c4c(c5c6ccccc6n2c5c31)C(=O)NC4` [staurosporine], the “tissue viability by dOCM” value in the test with mouse liver slice is “caused tissue death”. Further, in test [1] (CT26 LTFs), the “shift in the LMR relative to time zero healthy tissue” value is “large, reproducible shift to the right” and the “mode of cell death induced” value was “apoptosis”. Besides, in test [2] (24 hours after treatment), the “cell state indicated by NADH and FAD phasor plots” value is “undergoing apoptosis”; the “metabolic state (LMR) compared to that prior to treatment” value was “shifted”. Also, the “viable cells revealed by dOCM” value in test [2] (imaged 24 hours after treatment) is given as “Less viable cells”.
Take `CC(C)=CC[C@@H](O)C1=CC(=O)c2c(O)ccc(O)c2C1=O` [Shikonin]: in the test with mouse liver, the “mode of cell death created” value is recorded as “necroptosis”. In addition, in test [1] (CT26 LTFs), the “shift in the LMR relative to time zero healthy tissue” value is on record as “large, reproducible shift to the left” and the “mode of cell death induced” value is “necroptosis”. In addition, in test [1] (CT26 LTFs, stressed tissue), the “Caspase 3/7 staining” value was “little to no Caspase 3/7 staining”.
